Experimental data published in ChEMBL document CHEMBL3808363, “2-(Thienothiazolylimino)-1,3-thiazolidin-4-ones inhibit cell division cycle 25 A phosphatase” (Bioorg Med Chem, 2016).
Activity calls are given as the source filed them. The rule behind the calls is not given here.

What was measured:
[1] = test system: MCF7; assay: Increase in RNS levels in human MCF7 cells at IC50 concentration incubated for 24 hrs by DAF-2DA dye based flow cytometry; assay type: functional, cell-based
[2] = target: T1, M-phase inducer phosphatase 1 (Homo sapiens, UniProt P30304); assay: Mixed type inhibition of human recombinant full length GST-tagged CDC25A transfected in Escherichia coli BL21-DE3 assessed as enzyme/inhibitor complex using 3-O-methylfluorescein phosphate as substrate at 5 uM incubated for 20 mins followed by substrate addition measured every 10 mins for 2 hrs by fluorimetric assay
T1 sequence (P30304 whole entry): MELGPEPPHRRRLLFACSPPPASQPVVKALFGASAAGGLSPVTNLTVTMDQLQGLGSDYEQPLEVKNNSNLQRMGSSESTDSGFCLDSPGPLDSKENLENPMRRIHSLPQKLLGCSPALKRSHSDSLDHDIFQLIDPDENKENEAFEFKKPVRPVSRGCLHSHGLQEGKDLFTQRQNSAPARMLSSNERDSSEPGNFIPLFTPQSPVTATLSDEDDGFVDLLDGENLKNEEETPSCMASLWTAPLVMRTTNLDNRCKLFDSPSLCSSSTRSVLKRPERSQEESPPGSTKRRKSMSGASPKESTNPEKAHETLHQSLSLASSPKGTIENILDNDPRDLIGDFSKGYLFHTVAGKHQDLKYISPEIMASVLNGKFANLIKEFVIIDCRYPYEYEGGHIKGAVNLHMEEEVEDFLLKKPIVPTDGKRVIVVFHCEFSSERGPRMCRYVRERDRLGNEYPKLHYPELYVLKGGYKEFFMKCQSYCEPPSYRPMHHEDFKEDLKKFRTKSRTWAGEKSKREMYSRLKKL

[3] = target: T2, M-phase inducer phosphatase 2 (Homo sapiens) (UniProt P30305); assay: (§1) Inhibition of human recombinant GST-tagged CDC25B catalytic domain transfected in Escherichia coli BL21-DE3 using 3-O-methylfluorescein phosphate as substrate at 10 uM incubated for 20 mins followed by substrate addition measured every 10 mins for 2 hrs by fluorimetric assay
T2 sequence (whole entry): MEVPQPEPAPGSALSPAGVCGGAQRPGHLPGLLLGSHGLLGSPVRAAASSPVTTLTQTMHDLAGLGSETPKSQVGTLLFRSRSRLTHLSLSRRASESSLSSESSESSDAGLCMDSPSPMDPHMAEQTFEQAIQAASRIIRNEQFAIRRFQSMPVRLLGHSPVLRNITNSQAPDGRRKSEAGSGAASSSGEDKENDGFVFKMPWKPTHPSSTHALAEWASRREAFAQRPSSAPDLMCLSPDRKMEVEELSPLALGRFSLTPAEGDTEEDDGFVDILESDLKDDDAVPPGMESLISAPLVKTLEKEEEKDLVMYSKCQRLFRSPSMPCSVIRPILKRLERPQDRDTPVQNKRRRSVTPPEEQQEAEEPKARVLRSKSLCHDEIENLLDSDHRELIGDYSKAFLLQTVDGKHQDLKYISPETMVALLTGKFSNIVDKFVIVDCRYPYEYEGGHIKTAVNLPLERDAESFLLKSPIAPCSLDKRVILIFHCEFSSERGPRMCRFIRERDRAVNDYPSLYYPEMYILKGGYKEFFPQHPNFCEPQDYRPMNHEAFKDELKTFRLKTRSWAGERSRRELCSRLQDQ

[4] = test system: MDA-MB-231; assay: Cell cycle arrest in human MDA-MB-231 cells assessed as accumulation at subG1 phase at IC50 concentration after 48 hrs by propidium iodide staining-based flow cytometry; assay type: functional
[5] = target: Cyclin-dependent kinase 1 (Homo sapiens) (UniProt P06493); assay: Effect on CDK1 phosphorylation in human MDA-MB-231 after 6 hrs by Western blot analysis
Cyclin-dependent kinase 1 (Homo sapiens), sequence (P06493 whole entry, looked up): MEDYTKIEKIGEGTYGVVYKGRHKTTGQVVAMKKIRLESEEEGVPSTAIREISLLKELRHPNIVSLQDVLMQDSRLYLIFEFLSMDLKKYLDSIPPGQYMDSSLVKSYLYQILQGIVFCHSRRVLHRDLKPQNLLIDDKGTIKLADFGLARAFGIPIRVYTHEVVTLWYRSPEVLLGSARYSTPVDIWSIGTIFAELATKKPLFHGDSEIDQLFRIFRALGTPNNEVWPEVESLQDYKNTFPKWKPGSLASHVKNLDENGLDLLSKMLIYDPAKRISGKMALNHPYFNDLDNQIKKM

[6] = test system: MDA-MB-231; assay: Cell cycle arrest in human MDA-MB-231 cells assessed as accumulation at S phase at IC50 concentration after 48 hrs by propidium iodide staining-based flow cytometry (reference value: 21.7 +/- 0.3%); assay type: functional
[7] = target: T3, M-phase inducer phosphatase 1 (Homo sapiens) (UniProt P30304); assay: as §1, with “recombinant full length” for “recombinant”, “CDC25A” for “CDC25B catalytic domain”, “assay in presence of 0.01% triton X 100” for “assay”
T3 sequence (whole entry): T1 sequence (P30304 whole entry)

[8] = test system: MCF7; assay: Cell cycle arrest in human MCF7 cells assessed as accumulation at subG1 phase at IC50 concentration after 48 hrs by propidium iodide staining-based flow cytometry; assay type: functional
[9] = test system: MCF7; assay: Induction of apoptosis in human MCF7 cells assessed as nuclear fragmentation after 24 hrs by dihydro-rhodamine 123/hoechst […] staining based UV fluorescent microscopy; assay type: functional, cell-based
[10] = target: T4, M-phase inducer phosphatase 3 (Homo sapiens) (UniProt P30307); assay: (§2) Inhibition of human recombinant full length GST-tagged CDC25C transfected in Escherichia coli BL21-DE3 using 3-O-methylfluorescein phosphate as substrate at 10 uM incubated for 20 mins followed by substrate addition measured every 10 mins for 2 hrs by fluorimetric assay
T4 sequence (whole entry): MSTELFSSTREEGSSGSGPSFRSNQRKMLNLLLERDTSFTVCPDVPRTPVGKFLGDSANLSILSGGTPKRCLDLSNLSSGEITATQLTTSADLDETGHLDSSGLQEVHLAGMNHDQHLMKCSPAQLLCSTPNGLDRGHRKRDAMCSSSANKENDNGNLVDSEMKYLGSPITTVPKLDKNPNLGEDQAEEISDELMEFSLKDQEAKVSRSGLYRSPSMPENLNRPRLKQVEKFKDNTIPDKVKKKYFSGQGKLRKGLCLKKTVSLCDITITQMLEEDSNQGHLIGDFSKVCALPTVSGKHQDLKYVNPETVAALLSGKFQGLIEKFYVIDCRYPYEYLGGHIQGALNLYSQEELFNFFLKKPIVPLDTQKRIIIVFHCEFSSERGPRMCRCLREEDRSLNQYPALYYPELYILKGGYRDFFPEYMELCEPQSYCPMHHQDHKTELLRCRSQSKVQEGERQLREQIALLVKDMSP

[11] = test system: MCF7; assay: Cell cycle arrest in human MCF7 cells assessed as accumulation at G0/G1 phase at IC50 concentration after 48 hrs by propidium iodide staining-based flow cytometry (reference value: 66.7 +/- 1.6%); assay type: functional
[12] = test system: MCF7; assay: Induction of reactive oxygen species production in human MCF7 cells at IC50 concentration up to 6 hrs by DCF-2DA dye based flow cytometry; assay type: functional, cell-based
[13] = test system: MDA-MB-231; assay: Cytotoxicity against human MDA-MB-231 cells assessed as inhibition of cell growth after 72 hrs by MTT assay; assay type: functional, cell-based; conditions: MDA-MB-231, 72 h
[14] = target: T3, M-phase inducer phosphatase 1 (Homo sapiens); assay: as §2, with “CDC25A” for “CDC25C”, “assay in presence of 0.1% triton X 100” for “assay”
[15] = test system: MCF7; assay: Cell cycle arrest in human MCF7 cells assessed as accumulation at G2/M phase at IC50 concentration after 48 hrs by propidium iodide staining-based flow cytometry (reference value: 13.8 +/- 1%); assay type: functional
[16] = test system: MDA-MB-231; assay: Induction of reactive oxygen species production in human MDA-MB-231 cells at IC50 concentration up to 6 hrs by DCF-2DA dye based flow cytometry; assay type: functional, cell-based
[17] = test system: MDA-MB-231; assay: Increase in RNS levels in human MDA-MB-231 cells at IC50 concentration incubated for 24 hrs by DAF-2DA dye based flow cytometry; assay type: functional, cell-based
[18] = target: Cyclin-dependent kinase 1 (Homo sapiens) (UniProt P06493); assay: Effect on CDK1 phosphorylation in human MCF7 cells after 6 hrs by Western blot analysis; assay type: cell-based

For COc1ccc(/C=C2/S/C(=N\c3nc4cc(-c5ccc(Cl)cc5)sc4s3)NC2=O)cc1, the Activity [1] was “Active”, the Ki [2] was 37.1 µM and the inhibition [3] was 36.7%. The Activity [4] was “inactive”, the Activity [5] was “inactive” and the Activity [6] was 25.8%. The inhibition [7] was 28.2%, the Activity [8] was “inactive” and the Activity [9] was “inactive”. The inhibition [10] was 24%, the Activity [11] was 58.8% and the Activity [12] was “inactive”. It also gave an IC50 [13] of 8.4 µM, an inhibition [14] of 86.2% and an Activity [15] of 15.8%. For the same compound, the Activity [16] was “inactive”, the Activity [17] was “Active” and the Activity [18] was “inactive”.
